# Source: ChEMBL document CHEMBL4311992, “Discovery of 3-(((9H-purin-6-yl)amino)methyl)-4,6-dimethylpyridin-2(1H)-one derivatives as novel tubulin polymerization inhibitors for treatment of cancer” (Eur J Med Chem, 2019)
# Calls of active or inactive are those of the source. The calls are words filed in the database; no cut-off is given here.
# How the values were obtained:
# [1] = molecular target: TGF-beta receptor type-2 (Homo sapiens) (UniProt P37173); test: Inhibition of human TGFBR2 (188 to end residues) using myelin basic protein as substrate measured after 120 mins in presence of [gamma33P]ATP by scintillation counting method; design: scale not given: the % may be the effect or the level left
# Chain of TGF-beta receptor type-2 (Homo sapiens) (P37173 whole entry, the tested form may be a part): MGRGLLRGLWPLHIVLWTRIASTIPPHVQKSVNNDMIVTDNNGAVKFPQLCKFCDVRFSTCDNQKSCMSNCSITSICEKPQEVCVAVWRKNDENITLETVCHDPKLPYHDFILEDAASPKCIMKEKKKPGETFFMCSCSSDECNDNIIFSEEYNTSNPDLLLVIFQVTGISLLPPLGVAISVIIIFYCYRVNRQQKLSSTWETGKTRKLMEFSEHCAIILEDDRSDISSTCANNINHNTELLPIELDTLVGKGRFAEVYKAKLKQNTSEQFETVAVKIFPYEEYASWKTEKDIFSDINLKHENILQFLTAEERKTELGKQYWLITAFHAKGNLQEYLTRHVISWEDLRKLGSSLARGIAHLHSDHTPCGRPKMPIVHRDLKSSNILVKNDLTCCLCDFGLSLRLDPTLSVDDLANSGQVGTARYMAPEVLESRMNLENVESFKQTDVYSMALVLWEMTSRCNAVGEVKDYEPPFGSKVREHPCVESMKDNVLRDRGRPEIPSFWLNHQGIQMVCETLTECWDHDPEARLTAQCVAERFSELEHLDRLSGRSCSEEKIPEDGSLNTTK
# [2] = molecular target: STE20-like serine/threonine-protein kinase (Homo sapiens) (UniProt Q9H2G2); test: Inhibition of human SLK (1 to 373 residues) using RLGRDKYKTLRQIRQ as substrate measured after 40 mins in presence of [gamma33P]ATP by scintillation counting method; design: scale not given: the % may be the effect or the level left
# [3] = molecular target: Interferon-induced, double-stranded RNA-activated protein kinase (Homo sapiens) (UniProt P19525); test: Inhibition of recombinant human PKR (252 to end residues) assessed as residual activity at 10 uM using RSRSRSRSRSRSRSR as substrate measured after 40 mins in presence of [gamma33P]ATP by scintillation counting method
# [4] = molecular target: Protein kinase C gamma type (Homo sapiens) (UniProt P05129); test: Inhibition of recombinant full-length human PKCgamma assessed as residual activity at 10 uM using histone H1 as substrate measured after 40 mins in presence of [gamma33P]ATP by scintillation counting method
# [5] = molecular target: Serine/threonine-protein kinase Nek7 (Homo sapiens) (UniProt Q8TDX7); test: Inhibition of recombinant human NEK7 (2 to end residues) assessed as residual activity at 10 uM using FLAKSFGSPNRAYKK as substrate measured after 40 mins in presence of [gamma33P]ATP by scintillation counting method
# [6] = molecular target: Serine/threonine-protein kinase Nek3 (Homo sapiens) (UniProt P51956); test: Inhibition of recombinant full-length human NEK3 assessed as residual activity at 10 uM using myelin basic protein as substrate measured after 40 mins in presence of [gamma33P]ATP by scintillation counting method
# [7] = molecular target: Misshapen-like kinase 1 (Homo sapiens) (UniProt Q8N4C8); test: Inhibition of recombinant human MINK (1 to 310 residues) assessed as residual activity at 10 uM using myelin basic protein as substrate measured after 40 mins in presence of [gamma33P]ATP by scintillation counting method
# Chain of Misshapen-like kinase 1 (Homo sapiens) (Q8N4C8 whole entry, looked up, the tested form may be a part): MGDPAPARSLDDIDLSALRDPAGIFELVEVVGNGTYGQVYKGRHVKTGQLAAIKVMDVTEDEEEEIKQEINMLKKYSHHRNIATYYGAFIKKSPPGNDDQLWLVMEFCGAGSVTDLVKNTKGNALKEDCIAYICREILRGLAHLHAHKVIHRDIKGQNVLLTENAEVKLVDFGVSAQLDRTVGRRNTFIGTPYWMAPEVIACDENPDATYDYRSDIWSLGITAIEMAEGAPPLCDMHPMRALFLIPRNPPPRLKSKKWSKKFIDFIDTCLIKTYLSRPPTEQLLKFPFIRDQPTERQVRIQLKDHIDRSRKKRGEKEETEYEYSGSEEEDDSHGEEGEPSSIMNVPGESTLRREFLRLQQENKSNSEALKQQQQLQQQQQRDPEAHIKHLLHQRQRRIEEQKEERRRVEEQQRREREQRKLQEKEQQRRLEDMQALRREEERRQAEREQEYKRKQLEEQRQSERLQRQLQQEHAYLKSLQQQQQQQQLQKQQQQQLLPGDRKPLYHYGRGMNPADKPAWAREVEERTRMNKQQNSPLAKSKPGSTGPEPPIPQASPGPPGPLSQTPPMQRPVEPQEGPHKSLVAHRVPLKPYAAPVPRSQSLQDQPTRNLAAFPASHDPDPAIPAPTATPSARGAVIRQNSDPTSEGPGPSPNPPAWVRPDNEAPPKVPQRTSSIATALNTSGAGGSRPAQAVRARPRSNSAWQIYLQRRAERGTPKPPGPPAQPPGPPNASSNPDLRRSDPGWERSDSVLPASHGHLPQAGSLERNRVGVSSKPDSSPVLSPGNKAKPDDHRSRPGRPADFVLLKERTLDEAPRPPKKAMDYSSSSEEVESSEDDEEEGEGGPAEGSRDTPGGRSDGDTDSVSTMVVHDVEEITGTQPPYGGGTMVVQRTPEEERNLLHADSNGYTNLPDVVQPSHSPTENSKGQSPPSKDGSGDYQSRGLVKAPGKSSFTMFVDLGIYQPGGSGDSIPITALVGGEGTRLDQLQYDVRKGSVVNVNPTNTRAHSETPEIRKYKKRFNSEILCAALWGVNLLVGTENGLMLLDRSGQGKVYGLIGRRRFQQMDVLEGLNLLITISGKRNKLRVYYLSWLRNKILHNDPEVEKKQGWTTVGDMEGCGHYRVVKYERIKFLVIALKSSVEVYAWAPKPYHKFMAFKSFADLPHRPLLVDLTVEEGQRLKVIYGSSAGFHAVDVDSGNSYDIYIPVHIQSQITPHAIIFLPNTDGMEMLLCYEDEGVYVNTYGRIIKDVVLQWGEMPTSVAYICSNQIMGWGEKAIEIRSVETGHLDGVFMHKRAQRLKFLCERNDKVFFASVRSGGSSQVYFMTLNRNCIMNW
# [8] = molecular target: Testis-specific serine/threonine-protein kinase 1 (Homo sapiens) (UniProt Q9BXA7); test: Inhibition of recombinant full-length human TSSK1 assessed as residual activity at 10 uM using KKKVSRSGLYRSPSMPENLNRPR as substrate measured after 120 mins in presence of [gamma33P]ATP by scintillation counting method
# Mus musculus = species: Mus musculus; test: Inhibition of recombinant full-length mouse PI3K p110alpha/p65alpha (1 to 571 residues) assessed as residual activity at 10 uM using phosphatidylinositol-4, 5-bisphosphate as substrate measured after 40 mins by HTRF assay
# [9] = system: Tyrosine-protein kinase Blk (Homo sapiens), P51451 [UNDEFINED MUTATION]; test: Inhibition of full-length recombinant human BLK M287V mutant assessed as residual activity at 10 uM using poly(Glu, Tyr) 4:1 as substrate measured after 40 mins in presence of [gamma33P]ATP by scintillation counting method
# [10] = molecular target: Death-associated protein kinase 2 (Homo sapiens) (UniProt Q9UIK4); test: Inhibition of recombinant full-length human DAPK2 assessed as residual activity at 10 uM using calmodulin as substrate measured after 40 mins in presence of [gamma33P]ATP by scintillation counting method
# [11] = Toxicity in Balb/c mouse spleen at 80 mg/kg after 4 weeks by hematoxylin and eosin staining-based assay; type: organism-based; conditions: in vivo, 672 h
# [12] = Toxicity in Balb/c mouse lung at 80 mg/kg after 4 weeks by hematoxylin and eosin staining-based assay; type: organism-based; conditions: in vivo, 672 h
# Tubulin (Homo sapiens) [13] = molecular target: T1, Tubulin (Homo sapiens) (UniProt P68371+Q9H4B7+P0DPH7+P68366+Q13509+Q71U36+P04350+Q3ZCM7+P07437+P68363+Q9BQE3+Q6PEY2+Q13885+Q9BVA1+Q9BUF5); test: Disruption of microtubule network in human SW620 cells assessed as microtubule condensation at 50 nM incubated for 18 hrs by FITC/DAPI staining-based confocal microscopic analysis; type: cell-based
# Tubulin (Homo sapiens) [14] = molecular target: T1, Tubulin (Homo sapiens); test: Disruption of microtubule network in human SW620 cells assessed as microtubule disorganization at 50 nM for 18 hrs by FITC/DAPI staining-based confocal microscopic analysis; type: cell-based
# SW-620 = test: Induction of apoptosis in human SW620 cells assessed as increase in Bax expression up to 200 nM measured after 48 hrs by Western blot analysis; type: functional, cell-based
# HCT-116 [15] = test: Antitumor activity against human HCT116 cells xenografted in nude BALB/c mouse assessed as reduction in tumor weight at 40 mg/kg, po administered once daily for 4 weeks measured every 3 days during compound dosing; type: functional, organism-based
# HCT-116 [16] = test: Antitumor activity against human HCT116 cells xenografted in nude BALB/c mouse assessed as reduction in tumor weight at 80 mg/kg, po administered once daily for 4 weeks measured every 3 days during compound dosing; type: functional, organism-based
# [17] = molecular target: G protein-coupled receptor kinase 6 (Homo sapiens) (UniProt P43250); test: Inhibition of recombinant full-length human GRK6 assessed as residual activity at 10 uM using casein as substrate measured after 40 mins in presence of [gamma33P]ATP by scintillation counting method
# Chain of G protein-coupled receptor kinase 6 (Homo sapiens) (P43250 whole entry, looked up): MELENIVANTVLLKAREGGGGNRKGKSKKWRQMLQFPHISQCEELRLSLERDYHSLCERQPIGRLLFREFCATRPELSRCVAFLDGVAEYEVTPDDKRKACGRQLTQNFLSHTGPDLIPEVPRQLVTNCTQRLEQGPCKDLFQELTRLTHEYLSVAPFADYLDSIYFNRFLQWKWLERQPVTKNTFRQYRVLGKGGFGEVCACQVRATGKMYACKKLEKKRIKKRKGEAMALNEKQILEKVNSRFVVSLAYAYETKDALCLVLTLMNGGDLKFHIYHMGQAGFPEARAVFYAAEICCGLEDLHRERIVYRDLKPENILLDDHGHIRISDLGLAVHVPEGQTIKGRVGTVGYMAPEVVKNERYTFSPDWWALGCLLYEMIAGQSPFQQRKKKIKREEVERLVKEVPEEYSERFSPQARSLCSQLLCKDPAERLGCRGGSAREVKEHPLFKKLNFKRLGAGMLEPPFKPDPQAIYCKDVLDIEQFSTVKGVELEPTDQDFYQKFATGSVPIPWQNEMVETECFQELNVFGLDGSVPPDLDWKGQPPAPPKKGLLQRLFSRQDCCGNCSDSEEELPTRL
# [18] = molecular target: Serine/threonine-protein kinase haspin (Homo sapiens) (UniProt Q8TF76); test: Inhibition of recombinant human haspin (471 to end residues) assessed as residual activity at 10 uM using RARTLSFAEPG as substrate measured after 40 mins in presence of [gamma33P]ATP by scintillation counting method
# Chain of Serine/threonine-protein kinase haspin (Homo sapiens) (Q8TF76 whole entry): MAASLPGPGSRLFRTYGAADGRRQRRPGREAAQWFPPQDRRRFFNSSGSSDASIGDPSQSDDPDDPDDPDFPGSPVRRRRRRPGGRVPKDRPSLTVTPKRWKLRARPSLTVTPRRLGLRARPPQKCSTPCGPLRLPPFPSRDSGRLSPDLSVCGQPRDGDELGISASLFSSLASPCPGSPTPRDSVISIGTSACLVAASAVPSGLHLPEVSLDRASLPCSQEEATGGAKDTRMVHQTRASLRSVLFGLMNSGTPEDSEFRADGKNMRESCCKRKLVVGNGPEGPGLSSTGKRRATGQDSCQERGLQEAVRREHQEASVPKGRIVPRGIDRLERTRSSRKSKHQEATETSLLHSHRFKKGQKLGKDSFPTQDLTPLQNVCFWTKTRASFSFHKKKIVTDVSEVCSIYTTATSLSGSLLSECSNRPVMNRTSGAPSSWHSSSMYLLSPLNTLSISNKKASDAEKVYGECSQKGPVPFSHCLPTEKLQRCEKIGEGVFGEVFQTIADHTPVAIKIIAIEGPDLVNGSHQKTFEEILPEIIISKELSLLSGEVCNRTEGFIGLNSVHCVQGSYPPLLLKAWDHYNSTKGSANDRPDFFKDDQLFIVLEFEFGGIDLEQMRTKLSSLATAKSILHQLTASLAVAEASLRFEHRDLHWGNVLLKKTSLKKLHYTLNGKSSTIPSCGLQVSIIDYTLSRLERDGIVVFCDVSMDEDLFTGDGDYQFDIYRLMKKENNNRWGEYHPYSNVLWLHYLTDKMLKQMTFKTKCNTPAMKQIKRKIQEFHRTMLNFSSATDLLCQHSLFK
# [19] = molecular target: Mitogen-activated protein kinase 1 (Homo sapiens) (UniProt P28482); test: Inhibition of human MAPK2 assessed as residual activity at 10 uM
# Chain of Mitogen-activated protein kinase 1 (Homo sapiens) (P28482 whole entry): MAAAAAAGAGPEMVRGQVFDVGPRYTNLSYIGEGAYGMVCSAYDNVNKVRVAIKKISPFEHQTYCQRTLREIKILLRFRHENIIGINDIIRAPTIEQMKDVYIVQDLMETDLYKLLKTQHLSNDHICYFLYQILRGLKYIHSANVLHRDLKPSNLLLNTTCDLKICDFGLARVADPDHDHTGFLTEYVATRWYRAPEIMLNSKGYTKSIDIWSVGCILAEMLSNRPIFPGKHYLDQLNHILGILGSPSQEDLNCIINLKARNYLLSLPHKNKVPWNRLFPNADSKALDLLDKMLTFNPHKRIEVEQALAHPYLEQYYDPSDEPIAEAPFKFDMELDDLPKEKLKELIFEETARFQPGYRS
# [20] = molecular target: Eukaryotic translation initiation factor 2-alpha kinase 3 (Homo sapiens) (UniProt Q9NZJ5); test: Inhibition of recombinant human PEK (536 to end residues) assessed as residual activity at 10 uM using RSRSRSRSRSRSRSR as substrate measured after 40 mins in presence of [gamma33P]ATP by scintillation counting method
# Chain of Eukaryotic translation initiation factor 2-alpha kinase 3 (Homo sapiens) (Q9NZJ5 whole entry): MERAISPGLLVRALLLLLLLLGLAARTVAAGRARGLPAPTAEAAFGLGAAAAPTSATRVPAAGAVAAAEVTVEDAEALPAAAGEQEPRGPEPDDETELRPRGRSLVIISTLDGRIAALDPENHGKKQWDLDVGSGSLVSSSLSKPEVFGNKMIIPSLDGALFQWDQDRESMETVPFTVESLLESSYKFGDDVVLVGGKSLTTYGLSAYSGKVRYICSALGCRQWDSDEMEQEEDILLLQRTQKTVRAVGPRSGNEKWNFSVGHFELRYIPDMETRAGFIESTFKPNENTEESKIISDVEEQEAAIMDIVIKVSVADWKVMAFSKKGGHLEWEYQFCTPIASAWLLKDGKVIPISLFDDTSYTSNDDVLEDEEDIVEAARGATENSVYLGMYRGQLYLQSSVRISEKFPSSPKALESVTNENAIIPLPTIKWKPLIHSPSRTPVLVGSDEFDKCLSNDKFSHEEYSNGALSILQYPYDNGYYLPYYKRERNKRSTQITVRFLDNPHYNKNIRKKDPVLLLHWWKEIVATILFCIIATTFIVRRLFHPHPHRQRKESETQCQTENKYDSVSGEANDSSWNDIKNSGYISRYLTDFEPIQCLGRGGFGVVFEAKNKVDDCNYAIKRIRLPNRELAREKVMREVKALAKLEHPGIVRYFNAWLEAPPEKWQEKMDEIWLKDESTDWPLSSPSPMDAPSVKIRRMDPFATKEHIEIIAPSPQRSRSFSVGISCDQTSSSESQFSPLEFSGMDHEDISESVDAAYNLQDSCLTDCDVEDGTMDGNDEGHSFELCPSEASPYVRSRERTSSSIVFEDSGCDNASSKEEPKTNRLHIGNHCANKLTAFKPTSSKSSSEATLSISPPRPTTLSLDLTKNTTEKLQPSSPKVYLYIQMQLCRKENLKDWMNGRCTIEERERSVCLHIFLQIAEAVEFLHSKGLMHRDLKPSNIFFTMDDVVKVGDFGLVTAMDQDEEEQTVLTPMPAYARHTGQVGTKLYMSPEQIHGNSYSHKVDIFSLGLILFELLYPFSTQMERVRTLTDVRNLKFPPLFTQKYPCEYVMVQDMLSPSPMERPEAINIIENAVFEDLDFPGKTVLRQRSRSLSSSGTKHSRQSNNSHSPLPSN
# [21] = molecular target: Serine/threonine-protein kinase pim-2 (Homo sapiens) (UniProt Q9P1W9); test: Inhibition of recombinant human Pim2 (2 to end residues) assessed as residual activity at 10 uM using RSRHSSYPAGT as substrate measured after 40 mins in presence of [gamma33P]ATP by scintillation counting method
# Chain of Serine/threonine-protein kinase pim-2 (Homo sapiens) (Q9P1W9 whole entry, looked up): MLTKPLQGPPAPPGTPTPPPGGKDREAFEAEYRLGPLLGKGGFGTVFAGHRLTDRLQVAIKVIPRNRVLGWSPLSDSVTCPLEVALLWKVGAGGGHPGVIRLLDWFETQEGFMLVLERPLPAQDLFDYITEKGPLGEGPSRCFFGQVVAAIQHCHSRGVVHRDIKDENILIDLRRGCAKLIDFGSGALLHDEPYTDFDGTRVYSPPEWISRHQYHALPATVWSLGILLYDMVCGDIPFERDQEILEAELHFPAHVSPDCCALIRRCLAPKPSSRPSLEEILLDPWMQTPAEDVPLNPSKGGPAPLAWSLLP
# [22] = molecular target: Wee1-like protein kinase (Homo sapiens) (UniProt P30291); test: Inhibition of human Wee1 (214 to end residues) using LSNLYHQGKFLQTFCGSPLYRRR as substrate measured after 40 mins in presence of [gamma33P]ATP by scintillation counting method; design: scale not given: the % may be the effect or the level left
# [23] = Toxicity in nude BALB/c mouse assessed as change in glucose level at 40 to 80 mg/kg, po once daily for 4 weeks measured post-last dose; type: organism-based; conditions: in vivo, 672 h
# [24] = Toxicity in nude BALB/c mouse assessed as change in cholesterol level at 40 to 80 mg/kg, po once daily for 4 weeks measured post-last dose; type: organism-based; conditions: in vivo, 672 h
compound,measurement,setting,value
Cc1cc(C)c(CNc2nc(Cl)nc3c2ncn3C2CCCC2)c(=O)[nH]1,Activity,[1],71%
same,Activity,[2],95.5%
same,Activity,[3],109%
same,Activity,[4],108%
same,Activity,[5],106%
same,Activity,[6],102%
same,Activity,[7],94%
same,Activity,[8],110%
same,Activity,Mus musculus,104%
same,Activity,[9],115%
same,Activity,[10],97%
same,Activity,[11],Non-Toxic
same,Activity,[12],Non-Toxic
same,Activity,Tubulin (Homo sapiens) [13],Active
same,Activity,Tubulin (Homo sapiens) [14],Active
same,Activity,SW-620,Active
same,Activity,HCT-116 [15],Active
same,Activity,HCT-116 [16],Active
same,Activity,[17],104%
same,Activity,[18],89%
same,Activity,[19],104%
same,Activity,[20],116%
same,Activity,[21],104%
same,Activity,[22],84.5%
same,Activity,[23],Non-Toxic
same,Activity,[24],Non-Toxic
